Assay results published in US12479809B2, “Hydrazone amide derivative and application thereof in preparation of medicaments for preventing and treating alopecia” (SHENZHEN CELL INSPIRE PHARMACEUTICAL DEVELOPMENT CO., LTD., priority 2019, dated 2025).

Test system: alopecia in mice
Assay: Animal experiment: therapeutic effect on alopecia in bilaterally ovariectomized mice after oral administration
Assay type: in vivo
Details: for Cured / Ineffective / Ameliorated: number of mice of 10 per group; for Cured / Ineffective / Ameliorated / Total effective rate (%) / cure rate / back hair of mice after administration (FIGS. 3, 8 and 9): ovariectomized female mice, oral 10 mg/kg/day, 4 weeks; for Cured: cured = no difference with the normal group; for Ineffective: no difference from the model group; for Ameliorated: significant difference from the model group; for Total effective rate (%) / cure rate: 10 mice per group; for back hair of mice after administration (FIGS. 3, 8 and 9): compared with the normal group (FIG. 1); for promoting hair follicle growth: summary statement
Method: Experiment method: 100 8-week-old female mice were divided into 10 groups with 10 mice in each group. They were randomly divided into a normal group, a model group and administration groups. The mice in the model group and the administration groups were fasted overnight and subjected to bilateral ovariectomy after anesthesia with 0.1 ml of 10% chloral hydrate. After the bilateral ovariectomy, penicillin injection 0.1 ml/per mouse was injected once a day for seven times to prevent infection. After 4 weeks of modeling, the experiment was carried out by oral administration. The medicament was prepared with normal saline, and administered 10 mg/kg/day to each mouse in the administration groups. The normal group and model group were given only normal saline. After 4 weeks of administration, the hair on the back of the mice was observed.
Cured: Alopecia was completely cured, with no difference with the normal group.
Ameliorated: Alopecia was ameliorated, with significant difference from the model group, but small difference from the normal group.
Ineffective: Alopecia was not ameliorated, with no difference from the model group.

Row | SMILES | Cured | Ineffective | Ameliorated | Total effective rate (%) | cure rate | Total effective rate (%) (10 mg/kg/day) | back hair of mice after administration (FIGS. 3, 8 and 9) | promoting hair follicle growth
1 | CCOC(=O)c1sc(NC(=O)/C(=N/Nc2ccc(F)cc2C(=O)O)C(C)=O)nc1C [Compound 10] | 2 | 5 | 3 | 50% |  |  |  | 
2 | CC(=O)/C(=N\Nc1ccccc1C(=O)O)C(=O)N1CCOCC1 [Compound 28] | 10 | 0 | 0 |  | 100% | 100% | completely recovered | significant advantages
3 | CCOC(=O)c1sc(NC(=O)/C(=N/Nc2c(C#N)cccc2C(=O)O)C(C)=O)nc1C [Compound 12] | 8 | 1 | 1 | 90% |  |  |  | 
4 | CCOC(=O)c1sc(NC(=O)/C(=N/Nc2ccccc2C(=O)OC)C(C)=O)nc1C [Compound 4] | 8 | 0 | 2 |  |  | 100% |  | significant advantages
5 | CC(=O)/C(=N\Nc1ccccc1C(=O)O)C(=O)Nc1cccc(O)n1 [Compound 30] | 4 | 3 | 3 | 70% |  |  |  | 
6 | CC(=O)/C(=N\Nc1ccccc1C(=O)O)C(=O)Nc1ccccc1 [Compound 24] | 10 | 0 | 0 |  | 100% | 100% | completely recovered | significant advantages
